According to patent US8258134B2, “Pyridazinone glucokinase activators” (Hoffmann-La Roche Inc., priority 2008, dated 2012):

Molecular target: T1, Recombinant human liver GK1 (GST-GK) (Homo sapiens, UniProt P35557)
T1 construct: made in house; host or cells: E. coli
T1 sequence (P35557 1-466 isoform P35557-2): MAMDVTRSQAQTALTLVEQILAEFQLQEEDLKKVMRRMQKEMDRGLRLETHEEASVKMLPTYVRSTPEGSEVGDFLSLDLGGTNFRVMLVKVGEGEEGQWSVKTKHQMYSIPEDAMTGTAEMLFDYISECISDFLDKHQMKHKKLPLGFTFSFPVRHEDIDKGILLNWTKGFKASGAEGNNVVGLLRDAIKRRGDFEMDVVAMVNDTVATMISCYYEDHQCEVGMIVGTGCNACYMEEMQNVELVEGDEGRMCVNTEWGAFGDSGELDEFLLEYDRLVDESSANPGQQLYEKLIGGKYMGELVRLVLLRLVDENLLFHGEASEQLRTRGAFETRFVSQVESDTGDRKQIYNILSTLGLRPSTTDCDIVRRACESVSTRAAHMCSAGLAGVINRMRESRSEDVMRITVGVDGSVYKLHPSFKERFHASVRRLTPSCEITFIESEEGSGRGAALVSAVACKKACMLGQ
Experiment: Glucokinase in vitro assay (G6PDH-coupled NADH generation, OD340)
Format: biochemical
Details: 5 mM D-glucose; for SC1.5 average (concentration of activator that produced a 50% increase in the activity of GK): 30° C., pH 7.1, 10% DMSO
Outline: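 GST-tagged recombinant GK1 expressed in E. coli, run at 30° C, pH 7.1 Hepes with 5 mM D-glucose, 1 mM ATP and 1.8 mM NAD, G6PDH-coupled. Compounds were in 10% DMSO final, with a 10 min pre-incubation before enzyme addition. OD340/min rate measured; SC1.5 is the activator concentration giving a 50% increase in activity.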

| Compound | SC1.5 average (concentration of activator that produced a 50% increase in the activity of GK) [µM] | fold activation @ 30 uM (30 uM test compound) [fold] |
| --- | --- | --- |
| CC(C)(O)Cn1ccc(NC(=O)[C@@H](CC2CCOCC2)n2ncc(Oc3c(F)cccc3F)cc2=O)n1 [Example 43B, (R)-2-[4-(2,6-Difluoro-phenoxy)-6-oxo-6H-pyridazin-1-yl]-N-[1-(2-hydroxy-2-methyl-propyl)-1H-pyrazol-3-yl]-3-(tetrahydro-pyran-4-yl)-propionamide] | 7.536 | – |
| CC(C)(O)Cn1ccc(NC(=O)C(Cc2ccccc2)n2ncc(Oc3c(F)cccc3F)cc2=O)n1 (stereo not shown) [Example 44, 2-[4-(2,6-Difluoro-phenoxy)-6-oxo-6H-pyridazin-1-yl]-N-[1-(2-hydroxy-2-methyl-propyl)-1H-pyrazol-3-yl]-3-phenyl-propionamide] | 1.032 | – |
| Cn1nc(NC(=O)C(CC2CCCC2)n2ncc(Oc3ccccc3C(F)(F)F)cc2=O)cc1C(F)(F)F (stereo not shown) [Example 45, 3-Cyclopentyl-N-(1-methyl-5-trifluoromethyl-1H-pyrazol-3-yl)-2-[6-oxo-4-(2-trifluoromethyl-phenoxy)-6H-pyridazin-1-yl]-propionamide] | > 30 | 1.15 |
| CC(C)(O)Cn1ccc(NC(=O)C(CC2CCCC2)n2ncc(Cc3ccccc3C(F)(F)F)cc2=O)n1 (stereo not shown) [Example 46, 3-Cyclopentyl-N-[1-(2-hydroxy-2-methyl-propyl)-1H-pyrazol-3-yl]-2-[6-oxo-4-(2-trifluoromethyl-benzyl)-6H-pyridazin-1-yl]-propionamide] | 1.947 | – |
| CC(C)(O)Cn1ccc(NC(=O)C(CC2CCCC2)n2ncc(Cc3cccc(C(F)(F)F)c3)cc2=O)n1 (stereo not shown) [Example 47, 3-Cyclopentyl-N-[1-(2-hydroxy-2-methyl-propyl)-1H-pyrazol-3-yl]-2-[6-oxo-4-(3-trifluoromethyl-benzyl)-6H-pyridazin-1-yl]-propionamide] | 1.366 | – |
| CC(C)(O)Cn1ccc(NC(=O)C(CC2CCCC2)n2ncc(Cc3c(F)cccc3F)cc2=O)n1 (stereo not shown) [Example 48, 3-Cyclopentyl-2-[4-(2,6-difluoro-benzyl)-6-oxo-6H-pyridazin-1-yl]-N-[1-(2-hydroxy-2-methyl-propyl)-1H-pyrazol-3-yl]-propionamide] | 1.495 | – |
| CC(C)(O)Cn1ccc(NC(=O)C(CC2CCC2)n2ncc(Oc3c(F)cccc3F)cc2=O)n1 (stereo not shown) [Example 49, 3-Cyclobutyl-2-[4-(2,6-difluoro-phenoxy)-6-oxo-6H-pyridazin-1-yl]-N-[1-(2-hydroxy-2-methyl-propyl)-1H-pyrazol-3-yl]-propionamide] | 0.305 | – |
| CC(C)(O)Cn1ccc(NC(=O)C(Cc2c(F)cccc2F)n2ncc(Oc3c(F)cccc3F)cc2=O)n1 (stereo not shown) [Example 50, 2-[4-(2,6-Difluoro-phenoxy)-6-oxo-6H-pyridazin-1-yl]-3-(2,6-difluoro-phenyl)-N-[1-(2-hydroxy-2-methyl-propyl)-1H-pyrazol-3-yl]-propionamide] | 0.466 | – |
| CC(C)(O)Cn1ccc(NC(=O)C(CC2CCCCC2)n2ncc(Oc3c(F)cccc3F)cc2=O)n1 (stereo not shown) [Example 51, 3-Cyclohexyl-2-[4-(2,6-difluoro-phenoxy)-6-oxo-6H-pyridazin-1-yl]-N-[1-(2-hydroxy-2-methyl-propyl)-1H-pyrazol-3-yl]-propionamide] | 0.087 | – |
| CC(C)(O)Cn1ccc(NC(=O)[C@H](CC2CCCCC2)n2ncc(Oc3c(F)cccc3F)cc2=O)n1 [Example 51A, (S)-3-Cyclohexyl-2-[4-(2,6-difluoro-phenoxy)-6-oxo-6H-pyridazin-1-yl]-N-[1-(2-hydroxy-2-methyl-propyl)-1H-pyrazol-3-yl]-propionamide] | 0.038 | – |
| CC(C)(O)Cn1ccc(NC(=O)[C@@H](CC2CCCCC2)n2ncc(Oc3c(F)cccc3F)cc2=O)n1 [Example 51B, (R)-3-Cyclohexyl-2-[4-(2,6-difluoro-phenoxy)-6-oxo-6H-pyridazin-1-yl]-N-[1-(2-hydroxy-2-methyl-propyl)-1H-pyrazol-3-yl]-propionamide] | 0.838 | – |
| CCC(CC)CC(C(=O)Nc1ccn(CC(C)(C)O)n1)n1ncc(Oc2c(F)cccc2F)cc1=O (stereo not shown) [Example 52, 2-[4-(2,6-Difluoro-phenoxy)-6-oxo-6H-pyridazin-1-yl]-4-ethyl-hexanoic acid [1-(2-hydroxy-2-methyl-propyl)-1H-pyrazol-3-yl]-amide] | 0.456 | – |
| O=C(Nc1ccn(CCO)n1)C(CC1CCOCC1)n1ncc(Oc2c(F)cccc2F)cc1=O (stereo not shown) [Example 53, 2-[4-(2,6-Difluoro-phenoxy)-6-oxo-6H-pyridazin-1-yl]-N-[1-(2-hydroxy-ethyl)-1H-pyrazol-3-yl]-3-(tetrahydro-pyran-4-yl)-propionamide] | 0.469 | – |
| CCC(CC)CC(C(=O)Nc1ccn(CCO)n1)n1ncc(Oc2c(F)cccc2F)cc1=O (stereo not shown) [Example 54, 2-[4-(2,6-Difluoro-phenoxy)-6-oxo-6H-pyridazin-1-yl]-4-ethyl-hexanoic acid [1-(2-hydroxy-ethyl)-1H-pyrazol-3-yl]-amide] | 0.544 | – |
| O=C(Nc1ccn(CCO)n1)C(CC1CCC1)n1ncc(Oc2c(F)cccc2F)cc1=O (stereo not shown) [Example 55, 3-Cyclobutyl-2-[4-(2,6-difluoro-phenoxy)-6-oxo-6H-pyridazin-1-yl]-N-[1-(2-hydroxy-ethyl)-1H-pyrazol-3-yl]-propionamide] | 0.468 | – |
| O=C(Nc1ccn(CCO)n1)C(CC1CCCCC1)n1ncc(Oc2c(F)cccc2F)cc1=O (stereo not shown) [Example 56, 3-Cyclohexyl-2-[4-(2,6-difluoro-phenoxy)-6-oxo-6H-pyridazin-1-yl]-N-[1-(2-hydroxy-ethyl)-1H-pyrazol-3-yl]-propionamide] | 0.153 | – |
| O=C(Nc1ccn(CCO)n1)C(Cc1c(F)cccc1F)n1ncc(Oc2c(F)cccc2F)cc1=O (stereo not shown) [Example 57, 2-[4-(2,6-Difluoro-phenoxy)-6-oxo-6H-pyridazin-1-yl]-3-(2,6-difluoro-phenyl)-N-[1-(2-hydroxy-ethyl)-1H-pyrazol-3-yl]-propionamide] | 0.986 | – |
| O=C(Nc1ccn(CCO)n1)C(Cc1ccccc1)n1ncc(Oc2c(F)cccc2F)cc1=O (stereo not shown) [Example 58, 2-[4-(2,6-Difluoro-phenoxy)-6-oxo-6H-pyridazin-1-yl]-N-[1-(2-hydroxy-ethyl)-1H-pyrazol-3-yl]-3-phenyl-propionamide] | 2.719 | – |
| CC(C)CC(C(=O)Nc1ccn(CCO)n1)n1ncc(Oc2c(F)cccc2F)cc1=O (stereo not shown) [Example 59, 2-[4-(2,6-Difluoro-phenoxy)-6-oxo-6H-pyridazin-1-yl]-4-methyl-pentanoic acid [1-(2-hydroxy-ethyl)-1H-pyrazol-3-yl]-amide] | 0.576 | – |
| O=C(Nc1ccn(CCO)n1)C(CC1CCCC1)n1ncc(Oc2c(F)cccc2F)cc1=O (stereo not shown) [Example 60, 3-Cyclopentyl-2-[4-(2,6-difluoro-phenoxy)-6-oxo-6H-pyridazin-1-yl]-N-[1-(2-hydroxy-ethyl)-1H-pyrazol-3-yl]-propionamide] | 0.166 | – |
| O=C(Nc1ccn(CCO)n1)[C@H](CC1CCCC1)n1ncc(Oc2c(F)cccc2F)cc1=O [Example 60A, (S)-3-Cyclopentyl-2-[4-(2,6-difluoro-phenoxy)-6-oxo-6H-pyridazin-1-yl]-N-[1-(2-hydroxy-ethyl)-1H-pyrazol-3-yl]-propionamide] | 0.066 | – |
| O=C(Nc1ccn(CCO)n1)[C@@H](CC1CCCC1)n1ncc(Oc2c(F)cccc2F)cc1=O [Example 60B, (R)-3-Cyclopentyl-2-[4-(2,6-difluoro-phenoxy)-6-oxo-6H-pyridazin-1-yl]-N-[1-(2-hydroxy-ethyl)-1H-pyrazol-3-yl]-propionamide] | 1.942 | – |
| CC(C)CC(C(=O)Nc1ccn(C[C@@H](O)CO)n1)n1ncc(Oc2c(F)cccc2F)cc1=O (stereo partly drawn) [Example 61, 2-[4-(2,6-Difluoro-phenoxy)-6-oxo-6H-pyridazin-1-yl]-4-methyl-pentanoic acid [1-((R)-2,3-dihydroxy-propyl)-1H-pyrazol-3-yl]-amide] | 0.383 | – |
| O=C(Nc1ccn(C[C@@H](O)CO)n1)C(CC1CCOCC1)n1ncc(Oc2c(F)cccc2F)cc1=O (stereo partly drawn) [Example 62, 2-[4-(2,6-difluoro-phenoxy)-6-oxo-6H-pyridazin-1-yl]-N-[1-((R)-2,3-dihydroxy-propyl)-1H-pyrazol-3-yl]-3-(tetrahydro-pyran-4-yl)-propionamide] | 0.373 | – |
